Measurements as given in ChEMBL document CHEMBL3734719, “Discovery of highly potent triazoleantifungal agents with piperidine-oxadiazole side chains” (2015).
Converted amounts (≈) assume the structure as drawn.

Experiments:
Type in all cases: functional
Candida albicans = test: Antifungal activity against Candida albicans after 48 hrs by spectrophotometry
Candida parapsilosis = test: Antifungal activity against Candida parapsilosis after 48 hrs by spectrophotometry; conditions: Lodderomyces parapsilosis
Cryptococcus neoformans = test: Antifungal activity against Cryptococcus neoformans after 48 hrs by spectrophotometry
Nakaseomyces glabratus = test: Antifungal activity against Candida glabrata after 48 hrs by spectrophotometry
Aspergillus fumigatus = test: Antifungal activity against Aspergillus fumigatus after 48 hrs by spectrophotometry
Trichophyton rubrum = test: Antifungal activity against Trichophyton rubrum after 48 hrs by spectrophotometry
Nannizzia gypsea = test: Antifungal activity against Microsporum gypseum after 48 hrs by spectrophotometry

SMILES	MIC80 (Candida albicans) [µg/mL]	MIC80 (Candida parapsilosis) [µg/mL]	MIC80 (Cryptococcus neoformans) [µg/mL]	MIC80 (Nakaseomyces glabratus) [µg/mL]	MIC80 (Aspergillus fumigatus) [µg/mL]	MIC80 (Trichophyton rubrum) [µg/mL]	MIC80 (Nannizzia gypsea) [µg/mL]
OC(CN1CCC(c2nc(-c3cccs3)no2)CC1)(Cn1cncn1)c1ccc(F)cc1F (stereo unspecified)	0.063 (≈ 0.133 µM)	2 (≈ 4.23 µM)	1 (≈ 2.12 µM)	2 (≈ 4.23 µM)	2 (≈ 4.23 µM)	1 (≈ 2.12 µM)	2 (≈ 4.23 µM)
COc1cccc(-c2noc(C3CCN(CC(O)(Cn4cncn4)c4ccc(F)cc4F)CC3)n2)c1 (stereo unspecified)	1 (≈ 2.01 µM)	4 (≈ 8.06 µM)	2 (≈ 4.03 µM)	4 (≈ 8.06 µM)	4 (≈ 8.06 µM)	4 (≈ 8.06 µM)	4 (≈ 8.06 µM)
OC(CN1CCC(c2nnc(-c3ccncc3)o2)CC1)(Cn1cncn1)c1ccc(F)cc1F (stereo unspecified)	2 (≈ 4.28 µM)	16 (≈ 34.2 µM)	4 (≈ 8.56 µM)	16 (≈ 34.2 µM)	16 (≈ 34.2 µM)	32 (≈ 68.5 µM)	4 (≈ 8.56 µM)
OC(CN1CCC(c2nc(-c3ccco3)no2)CC1)(Cn1cncn1)c1ccc(F)cc1F (stereo unspecified)	0.063 (≈ 0.138 µM)	1 (≈ 2.19 µM)	0.5 (≈ 1.1 µM)	1 (≈ 2.19 µM)	1 (≈ 2.19 µM)	2 (≈ 4.38 µM)	2 (≈ 4.38 µM)
OC(CN1CCC(c2nc(-c3cccnc3)no2)CC1)(Cn1cncn1)c1ccc(F)cc1F (stereo unspecified)	0.063 (≈ 0.135 µM)	0.25 (≈ 0.535 µM)	0.125 (≈ 0.267 µM)	0.125 (≈ 0.267 µM)	0.125 (≈ 0.267 µM)	1 (≈ 2.14 µM)	0.5 (≈ 1.07 µM)
OC(CN1CCC(c2nc(-c3ccc(C(F)(F)F)cc3F)no2)CC1)(Cn1cncn1)c1ccc(F)cc1F (stereo unspecified)	1 (≈ 1.81 µM)	2 (≈ 3.62 µM)	2 (≈ 3.62 µM)	4 (≈ 7.24 µM)	4 (≈ 7.24 µM)	1 (≈ 1.81 µM)	0.5 (≈ 0.905 µM)
CCc1ccc(-c2nnc(C3CCN(CC(O)(Cn4cncn4)c4ccc(F)cc4F)CC3)o2)cc1 (stereo unspecified)	0.5 (≈ 1.01 µM)	2 (≈ 4.04 µM)	2 (≈ 4.04 µM)	4 (≈ 8.09 µM)	4 (≈ 8.09 µM)	4 (≈ 8.09 µM)	4 (≈ 8.09 µM)
COc1ccc(-c2nnc(C3CCN(CC(O)(Cn4cncn4)c4ccc(F)cc4F)CC3)o2)cc1 (stereo unspecified)	0.063 (≈ 0.127 µM)	1 (≈ 2.01 µM)	0.5 (≈ 1.01 µM)	2 (≈ 4.03 µM)	2 (≈ 4.03 µM)	1 (≈ 2.01 µM)	1 (≈ 2.01 µM)

Next, values leading:

MIC80 (Candida albicans) [µg/mL]	MIC80 (Candida parapsilosis) [µg/mL]	MIC80 (Cryptococcus neoformans) [µg/mL]	MIC80 (Nakaseomyces glabratus) [µg/mL]	MIC80 (Aspergillus fumigatus) [µg/mL]	MIC80 (Trichophyton rubrum) [µg/mL]	MIC80 (Nannizzia gypsea) [µg/mL]	SMILES
0.125 (≈ 0.268 µM)	0.5 (≈ 1.07 µM)	0.25 (≈ 0.536 µM)	2 (≈ 4.29 µM)	2 (≈ 4.29 µM)	1 (≈ 2.14 µM)	1 (≈ 2.14 µM)	OC(CN1CCC(c2nnc(-c3ccccc3)o2)CC1)(Cn1cncn1)c1ccc(F)cc1F (stereo unspecified)
1 (≈ 1.94 µM)	8 (≈ 15.5 µM)	4 (≈ 7.74 µM)	8 (≈ 15.5 µM)	8 (≈ 15.5 µM)	4 (≈ 7.74 µM)	8 (≈ 15.5 µM)	OC(CN1CCC(c2nnc(-c3cccc4ccccc34)o2)CC1)(Cn1cncn1)c1ccc(F)cc1F (stereo unspecified)
0.063 (≈ 0.13 µM)	0.5 (≈ 1.03 µM)	≤ 0.125	1 (≈ 2.06 µM)	1 (≈ 2.06 µM)	2 (≈ 4.13 µM)	2 (≈ 4.13 µM)	OC(CN1CCC(c2nnc(-c3ccc(F)cc3)o2)CC1)(Cn1cncn1)c1ccc(F)cc1F (stereo unspecified)
0.125 (≈ 0.258 µM)	0.5 (≈ 1.03 µM)	≤ 0.125	1 (≈ 2.06 µM)	1 (≈ 2.06 µM)	2 (≈ 4.13 µM)	2 (≈ 4.13 µM)	OC(CN1CCC(c2nnc(-c3ccccc3F)o2)CC1)(Cn1cncn1)c1ccc(F)cc1F (stereo unspecified)
0.125 (≈ 0.26 µM)	4 (≈ 8.32 µM)	4 (≈ 8.32 µM)	8 (≈ 16.6 µM)	8 (≈ 16.6 µM)	16 (≈ 33.3 µM)	16 (≈ 33.3 µM)	Cc1ccccc1-c1nnc(C2CCN(CC(O)(Cn3cncn3)c3ccc(F)cc3F)CC2)o1 (stereo unspecified)
